Legend:
Experiment in all cases: biochemical
[1] = target: Human Cyclosporin A receptor with 18 kDa molecular weight, hCyp18 (Homo sapiens, UniProt P62937)
[2] = target: T1, Bacterial Juglon sensitive non proteolytic enzyme, EcParv (Escherichia coli, UniProt P0A9L5)
T1 sequence (P0A9L5 1-93): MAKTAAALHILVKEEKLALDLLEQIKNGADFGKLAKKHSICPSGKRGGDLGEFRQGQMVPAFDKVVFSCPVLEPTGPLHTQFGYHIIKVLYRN

[3] = target: Leishmonia pneumophila virulence Cyclosporin A receptor with 18 kDa molecular weight, LpCyp18 (Legionella pneumophila subsp. pneumophila, UniProt Q5ZRZ4)
Chain of Leishmonia pneumophila virulence Cyclosporin A receptor with 18 kDa molecular weight, LpCyp18 (Q5ZRZ4 1-164 limits assumed): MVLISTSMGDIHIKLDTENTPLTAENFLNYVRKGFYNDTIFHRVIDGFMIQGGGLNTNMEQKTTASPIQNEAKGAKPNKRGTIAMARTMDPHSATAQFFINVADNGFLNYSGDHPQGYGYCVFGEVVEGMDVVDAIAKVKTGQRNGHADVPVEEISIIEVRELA

[4] = target: First described human Rapamycin receptor, hFKBP12 (Homo sapiens, UniProt P62942)
Chain of First described human Rapamycin receptor, hFKBP12 (P62942 whole entry): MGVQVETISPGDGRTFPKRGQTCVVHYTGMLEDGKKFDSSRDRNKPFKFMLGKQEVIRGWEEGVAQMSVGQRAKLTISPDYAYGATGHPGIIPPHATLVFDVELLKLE

Chain of Human Cyclosporin A receptor with 18 kDa molecular weight, hCyp18 (P62937 whole entry): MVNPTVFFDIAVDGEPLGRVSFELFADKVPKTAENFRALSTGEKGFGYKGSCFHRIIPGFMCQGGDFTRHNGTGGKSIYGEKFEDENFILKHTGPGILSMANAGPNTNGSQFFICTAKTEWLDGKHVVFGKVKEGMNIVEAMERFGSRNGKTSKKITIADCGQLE

## N#CCCNC(=S)Nc1ccc([N+](=O)[O-])cc1 [Compound 4]
[1]
  IC50: > 100 µM
[2]
  IC50: 10 to 50 µM
[3]
  IC50: > 100 µM
[4]
  IC50: > 100 µM

From EP1433779A1, “Use of nitriles as inhibitors of non-proteolytic enzymes” (Jerini AG, priority 2002, dated 2004)
